# Assay results: patent US8778919B2, “Cyclic anilino—pyridinotriazines” (Janssen Pharmaceutica NV, priority 2005, dated 2014)
# What was measured:
# GSK-3α = GSK-3α (Homo sapiens, UniProt P49840); assay: GSK-3 kinase assay (C1), GSK-3α; format: biochemical; details: 1 μM ATP, read-out: C1 Score α
# Procedure: (§1) In vitro GSK-3 assays were performed at room temperature in a 100 μl reaction volume of 25 mM Tris (pH 7.4) containing 10 mM MgCl2.6H2O, 1 mM DTT, 0.1 mg/ml BSA, 5% glycerol, 5.7 ng/μl GSK-3β or 0.25 ng/μl GSK-3α, 5 μM biotinylated CREB peptide, 1 μM ATP, 0.85 μCi/ml ^33P-ATP and a suitable amount of a test compound. After one hour, the reaction was terminated by adding 70 μl of Stop mix (0.1 mM ATP, 5 mg/ml streptavidin coated PVT SPA beads, pH 11.0). The beads were allowed to settle overnight and the radioactivity attached to the beads was counted in a microtiter plate scintillation counter and compared with the results obtained in a control experiment (without the presence of a test compound) in order to determine the percentage of GSK-3 inhibition. The IC50 value, i.e. the concentration (M) of the test compound at which 50% of GSK-3 is inhibited, was calculated from the dose response curve obtained by performing the above-described GSK-3 assay in the presence of different amounts of the test compound. Score 1=pIC50 value<6, Score 2=pIC50 value from 6-7, Score 3=pIC50 value from 7-8, Score 4=pIC50 value>8.
# GSK-3β = GSK-3β (Homo sapiens, UniProt P49841); assay: GSK-3 kinase assay (C1), GSK-3β; format: biochemical; details: 1 μM ATP, read-out: C1 Score β
# Procedure: as §1
# GSK-3β, sequence (P49841 whole entry, species assumed): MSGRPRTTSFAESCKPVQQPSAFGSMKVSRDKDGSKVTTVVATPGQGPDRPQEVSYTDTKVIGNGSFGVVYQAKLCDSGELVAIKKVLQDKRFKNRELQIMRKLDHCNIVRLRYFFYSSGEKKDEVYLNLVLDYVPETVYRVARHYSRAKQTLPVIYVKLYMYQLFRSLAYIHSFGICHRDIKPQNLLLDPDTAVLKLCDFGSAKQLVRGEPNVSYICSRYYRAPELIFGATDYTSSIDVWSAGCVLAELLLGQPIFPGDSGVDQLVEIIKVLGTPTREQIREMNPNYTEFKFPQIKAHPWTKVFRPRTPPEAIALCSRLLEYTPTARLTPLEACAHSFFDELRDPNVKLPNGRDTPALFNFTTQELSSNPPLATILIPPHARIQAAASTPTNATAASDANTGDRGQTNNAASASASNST
# GSK-3α, sequence (P49840 whole entry, species assumed): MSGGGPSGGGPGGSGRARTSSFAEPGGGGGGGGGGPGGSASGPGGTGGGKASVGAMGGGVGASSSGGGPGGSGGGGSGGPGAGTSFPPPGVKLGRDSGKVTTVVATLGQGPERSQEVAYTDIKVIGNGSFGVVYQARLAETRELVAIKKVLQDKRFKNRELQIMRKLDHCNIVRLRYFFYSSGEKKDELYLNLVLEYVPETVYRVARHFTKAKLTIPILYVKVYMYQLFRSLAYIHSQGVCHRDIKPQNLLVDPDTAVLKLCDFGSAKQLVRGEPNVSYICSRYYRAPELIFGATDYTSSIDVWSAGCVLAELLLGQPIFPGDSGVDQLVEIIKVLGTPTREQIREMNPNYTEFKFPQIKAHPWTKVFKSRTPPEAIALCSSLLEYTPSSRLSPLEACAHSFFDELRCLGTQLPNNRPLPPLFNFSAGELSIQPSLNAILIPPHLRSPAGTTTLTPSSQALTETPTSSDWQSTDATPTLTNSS
Compound,IC50 (GSK-3α) [nM],IC50 (GSK-3β) [nM]
O=C1NCCCc2cc(ccn2)-c2ncnc(n2)Nc2cccc(c2)CN2CCC1CC2 [Compound 16],10 to 100,10 to 100
O=C1NCCc2cccc(c2)Nc2ncnc(n2)-c2ccnc(c2)CCCN2CCCC12 (stereo not drawn) [Compound 28],100 to 1000,10 to 100
O=C1CCN2CCN(CCCc3cc(ccn3)-c3ncnc(n3)Nc3cccc(c3)CCN1)CC2 [Compound 29],10 to 100,10 to 100
O=C1CNCc2cccc(c2)Nc2ncnc(n2)-c2cccc(c2)CCCN1 [Compound 42],100 to 1000,
CN1CC(=O)NCCNc2cccc(c2)-c2ncnc(n2)Nc2cccc(c2)C1 [Compound 43],100 to 1000,10 to 100
C[C@@H]1NCc2cccc(c2)Nc2ncnc(n2)-c2cccc(c2)CCCNC1=O [Compound 44],100 to 1000,
O=C1NCCCc2cccc(c2)-c2ncnc(n2)Nc2cccc(c2)CN[C@H]1Cc1ccccc1 [Compound 45],10 to 100,
C[C@H]1NCc2cccc(c2)Nc2ncnc(n2)-c2cccc(c2)CCCNC1=O [Compound 47],10 to 100,
CC1(C)NCc2cccc(c2)Nc2ncnc(n2)-c2cccc(c2)CCCNC1=O [Compound 48],100 to 1000,
CN1CCC(=O)NCCCc2cccc(c2)-c2ncnc(n2)Nc2cccc(c2)C1 [Compound 49],10 to 100,
O=C1NCCCc2cccc(c2)-c2ncnc(n2)Nc2cccc(c2)CN2C[C@@H](O)C[C@H]12 [Compound 50],10 to 100,
O=C1NCCCc2cccc(c2)-c2ncnc(n2)Nc2cccc(c2)CN2CCC1CC2 [Compound 51],10 to 100,
CN1CCCC(=O)NCCCc2cccc(c2)-c2ncnc(n2)Nc2cccc(c2)C1 [Compound 53],10 to 100,
O=C1NCCCc2cccc(c2)-c2ncnc(n2)Nc2cccc(c2)CN2CCCC1C2 (stereo not drawn) [Compound 55],10 to 100,
O=C1NCCCc2cccc(c2)-c2ncnc(n2)Nc2cccc(c2)CN2CCC[C@@H]12 [Compound 56],100 to 1000,
O=C1CCN2CCN(CC2)Cc2cccc(c2)Nc2ncnc(n2)-c2cccc(c2)CCCN1 [Compound 57],100 to 1000,
O=C1CCN2CCN(CC2)Cc2cccc(c2)Nc2ncnc(n2)-c2cccc(c2)NCCN1 [Compound 60],100 to 1000,
O=C1NCCNc2cccc(c2)-c2ncnc(n2)Nc2cccc(c2)CN2CCCC1C2 (stereo not drawn) [Compound 61],100 to 1000,
O=C1NCCNc2cccc(c2)-c2ncnc(n2)Nc2cccc(c2)CN2CCC1CC2 [Compound 62],100 to 1000,
C[C@@H]1NCc2cccc(c2)Nc2ncnc(n2)-c2cccc(c2)NCCNC1=O [Compound 63],100 to 1000,
O=C1NCCNc2cccc(c2)-c2ncnc(n2)Nc2cccc(c2)CN[C@H]1Cc1ccccc1 [Compound 64],100 to 1000,
CN1CCC(=O)NCCCCc2cc(ccn2)-c2ncnc(n2)Nc2cccc(c2)C1 [Compound 68],100 to 1000,
O=C1NCCOc2ccc(cc2)-c2ncnc(n2)Nc2cccc(c2)CN2CCC1CC2 [Compound 73],100 to 1000,
O=C1COc2cccc(c2)Nc2ncnc(n2)-c2ccnc(c2)CCCN1 [Compound 74],10 to 100,
CN1CC(=O)NCCOc2cccc(c2)Nc2ncnc(n2)-c2ccnc(c2)C1 [Compound 76],< 10,
CN1CC(=O)N2CCN(CCc3cc(ccn3)-c3ncnc(n3)Nc3cccc(c3)C1)CC2 [Compound 77],100 to 1000,
O=C1COc2cccc(c2)Nc2ncnc(n2)-c2ccnc(c2)CCCN2CCN1CC2 [Compound 78],10 to 100,
C=CCN1CC(=O)NCCNc2ncccc2-c2ncnc(n2)Nc2cccc(c2)C1 [Compound 79],100 to 1000,
C[C@H]1NCCCc2cccc(c2)-c2ncnc(n2)Nc2ccccc2CNC1=O [Compound 80],100 to 1000,
